Measured values taken from US8076520B2, “Phosphatidyl oligoglycerols” (Max-Planck-Gesellschaft zur Forderung der Wissenschaften …, priority 1996, dated 2011).

What was measured:
[1] = Behaviour of PP-G-PGn lipids in water (additional properties); assay type: physicochemical; conditions: for behaviour when heated in water: heated above 40° C. in water; for stability of the lamellar phases: low temperatures; for time until transition from the isotropic to the anisotropic phase is recognizable: room temperature; for behaviour when the temperature falls: temperature below 40° C.
Text: As the number of glycerol molecules increases, the number of free hydroxyl groups and thus also the polarity increases. […] Whereas the transition from the isotropic to the anisotropic phase at room temperature is recognizable after a few minutes with PP-G-PG2, it takes several hours for PP-G-PG3. The differences in polarity are also evident from the different retention factors (Rf) in the thin-layer chromatogram on silica gel.

[2] = in vivo
Experimental: In an animal experiment, liposomes were used which consisted of 40 mol % cholesterol, 10 mol % phosphatidylglycerol and 50% dipalmitoyl lecithin.
Liposomes of the same composition were prepared, in which the phosphatidylglycerol was replaced by a phosphatidylglycerol G2 of the invention. […] This linear relation was observed irrespective of the size of the liposomes. The same linear reduction in serum liposome concentration was found with 50 nm liposomes and with 150 nm liposomes. The linear reduction in blood liposome concentration was also observed for different starting concentrations.

Substance	behaviour when heated in water [1]	stability of the lamellar phases [1]	time until transition from the isotropic to the anisotropic phase is recognizable [1]	behaviour when the temperature falls [1]	solution formed in water ([1]; proportion of 5% in water)	half-life in serum [2] [h]	persistence characteristic (decrease of liposomes in serum with time) [2]
1.2-dipalmitoyl-sn-glycero-3-phospho-G1-G2 [PP-G-PG2]	dissolve when heated above 40 °C in water and form superstructures	remain stable even at low temperatures (down to 4° C.)	a few minutes	lamellar structures with differently pronounced hystereses are formed	–	–	–
1.2-dipalmitoyl-sn-glycero-3-phospho-G1-G2-G3 [PP-G-PG3]	dissolve when heated above 40 °C in water and form superstructures	remain stable even at low temperatures (down to 4° C.)	several hours	lamellar structures with differently pronounced hystereses are formed	–	–	–
1.2-dipalmitoyl-sn-glycero-3-phospho-G1-G2-G3-G4 [PP-G-PG4]	–	–	–	–	clear isotropic solution	–	–
phosphatidylglycerol	–	–	–	–	–	4	a rapid decrease to start with, followed by a slower decrease
